# Measurements published in patent publication US20220204497A1, “NOVEL COMPOUND HAVING ANTICANCER ACTIVITY, AND METHOD FOR PRODUCING SAME” (MEDICINAL BIOCONVERGENCE RESEARCH CENTER, priority 2019, published 2022).
# Where “and” joins values, the source holds several entries; their conditions need not be identical. Equal entries are not always repeated.
# Legend:
# A549 cells = test: Cell viability by MTT method in A549 cells; assay type: cell-based; parameters: concentration or dose not given beside the values; conditions: 72 hours treatment
# AIMP2-DX2 = biological target: T1, AIMP2-DX2 (Homo sapiens, UniProt Q13155); test: DX2-nanoluciferase assay (DX2 expression change) in transfected A549 cells; conditions: for inhibition at 40 µM / inhibition at 10 µM: A549, 4 h; for inhibition at 40 µM: read-out: DX-Nanoluciferase activity (40 μM), 40 μM, 4 hours treatment, A549 cells transfected with nanoluciferase-DX2; for inhibition at 40 µM / DX-Nanoluciferase activity (40 μM): inhibitory effect on AIMP2-DX2 expression; for inhibition at 10 µM: read-out: DX-Nanoluciferase activity (10 μM), 10 μM, 4 hours treatment, A549 cells transfected with nanoluciferase-DX2
# T1 sequence (Q13155 1-251 isoform Q13155-2): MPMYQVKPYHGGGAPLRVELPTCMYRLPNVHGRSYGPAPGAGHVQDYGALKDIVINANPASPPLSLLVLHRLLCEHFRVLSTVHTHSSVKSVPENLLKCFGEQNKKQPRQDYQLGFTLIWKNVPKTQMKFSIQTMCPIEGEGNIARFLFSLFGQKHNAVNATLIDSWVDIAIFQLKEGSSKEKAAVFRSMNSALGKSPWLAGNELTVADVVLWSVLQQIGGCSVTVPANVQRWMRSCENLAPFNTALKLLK
# Experimental: After cloning DX2 into a plasmid expressing nanoluciferase, the plasmid was transfected into A549 cells. Transfected cells were seeded 1×10^4 per well in a 96-well plate and stabilized for 12 hours. […] Cell viability was measured by the MTT method after 72 hours of treatment with each concentration of the compound in A549 cells.
# [1] = 4 hours treatment, A549 cells transfected with nanoluciferase-DX2
Structure (SMILES),Cell Viability (% inhibition) (A549) (A549 cells),inhibition at 40 µM (AIMP2-DX2),inhibition at 10 µM (AIMP2-DX2),DX-Nanoluciferase activity (40 μM) (AIMP2-DX2; [1]),"DX-Nanoluciferase activity (10 μM) (AIMP2-DX2; 10 μM, 4 hours treatment, A549 cells transfected with nanoluciferase-DX2)"
"CCOC(=O)C(Cc1c[nH]c2ccc(C(=O)O)cc12)NS(=O)(=O)c1ccc(C)cc1 (stereo not drawn) [Compound 73, 3-(3-Ethoxy-2-(4-methylphenylsulfonamido)-3-oxopropyl)-1H-indole-5-carboxylic acid]",4.32 ± 2.95%,44.2 ± 3.91%,–,–,–
"COc1ccc(-c2cc(NC(=O)[C@H](CC(C)C)NS(=O)(=O)c3ccc(C)cc3)on2)cc1 [Compound 89, (S)—N-(3-(4-methoxyphenyl)isoxazol-5-yl)-4-methyl-2-(4-methylphenylsulfonamido)pentanamide]",98.73 ± 0.92%,47.5 ± 13.3%,–,–,–
"CC(C)(C)OC(=O)N[C@@H](Cc1c[nH]c2ccccc12)C(=O)Nc1ccc(N2CCOCC2)cc1 [Compound 118, (S)-tert-Butyl 3-(1H-Indol-3-yl)-1-(4-morpholinophenylamino)-1-oxopropan-2-ylcarbamate]",9.26 ± 7.63%,–,8.22 ± 5.02%,–,–
"O=C(Nc1nc(-c2ccc(C(F)(F)F)cc2)cs1)[C@H](Cc1c[nH]c2ccccc12)NS(=O)(=O)c1ccc(Br)cc1 [Compound 193, (S)-2-(4-Bromophenylsulfonamido)-3-(1H-Indol-3-yl)-N-(4-(4-(trifluoromethyl)phenyl)thiazol-2-yl)propanamide]",88.98 ± 0.59% and 88.98 ± 10.59%,–,49.3 ± 9.52%,–,–
"CC(C)C[C@H](NC(=O)CCS(=O)(=O)c1ccccc1)C(=O)OCc1ccccc1 [Compound 54, (S)-benzyl 4-methyl-2-(3-(phenylsulfonyl)propanamido)pentanoate]",84.05 ± 2.61%,–,–,33.7 ± 4.3,–
"O=C(NNC(=O)C12CC3CC(CC(C3)C1)C2)[C@H](Cc1c[nH]c2ccccc12)NS(=O)(=O)c1ccc(Br)cc1 [Compound 197, N—((S)-1-(2-((3S,5S,7S)-adamantane-1-carbonyl)hydrazinyl)-3-(1H-indol-3-yl)-1-oxopropan-2-yl)-4-bromobenzenesulfonamide]",84.86 ± 1.09%,–,–,–,43.54 ± 5.26 (10 μM) and 43.64 ± 5.26 (10 μM)
"Cc1ccc(S(=O)(=O)N[C@@H](CC(C)C)C(=O)N2CCOCCOCCOCC2)cc1 [Compound 3, (S)-4-methyl-N-(4-methyl-1-oxo-1-(1,4,7-trioxa-10-azacyclododecan-10-yl)pentan-2-yl)benzenesulfonamide]",8.64%,55.8 ± 14.8%,–,–,–
"Cc1ccc(-c2csc(NC(=O)[C@H](Cc3c[nH]c4ccccc34)NS(=O)(=O)c3ccc(Br)cc3)n2)cc1 [Compound 187, (S)-2-(4-Bromophenylsulfonamido)-3-(1H-indol-3-yl)-N-(4-(p-tolyl)thiazol-2-yl)propanamide]",61.41 ± 4.21%,–,34.9 ± 10.6%,–,–
"Cc1ccc(S(=O)(=O)N[C@@H](Cc2c[nH]c3ccccc23)C(=O)OCc2ccccc2)cc1 [Compound 127, (S)-Benzyl 3-(1H-indol-3-yl)-2-(4-methylphenylsulfonamido)propanoate]",94.24 ± 0.54%,49.9 ± 1.6%,–,–,–
"Cc1ccc(S(=O)(=O)N[C@@H](Cc2ccc(OS(=O)(=O)c3ccc(C)cc3)cc2)C(=O)Nc2ccc(N3CCOCC3)cc2)cc1 [Compound 101, (S)-4-(2-(4-Methylphenylsulfonamido)-3-(4-morpholinophenylamino)-3-oxopropyl)phenyl 4-methylbenzenesulfonate]",35.10 ± 5.95%,10.9 ± 4.88%,–,–,–
"O=C(NCCc1ccccc1)[C@H](Cc1c[nH]c2ccccc12)NS(=O)(=O)c1ccc(Br)cc1 [Compound 196, (S)-2-(4-Bromophenylsulfonamido)-3-(1H-indol-3-yl)-N-phenethylpropanamide]",79.27 ± 0.55%,–,28.2 ± 2.11%,–,–
"Cc1ccc(S(=O)(=O)N[C@@H](CC(C)C)C(=O)Nc2nc(-c3ccc(OC(F)(F)F)cc3)cs2)cc1 [Compound 95, (S)-4-Methyl-2-(4-methylphenylsulfonamido)-N-(4-(4-(trifluoromethoxy)phenyl)thiazol-2-yl)pentanamide]",92.97 ± 0.09%,22.6 ± 5.29%,–,–,–
"CC(C)C[C@H](NC(=O)c1ccc(C(C)(C)C)cc1)C(=O)N1CCOCC1 [Compound 57, (S)-4-tert-Butyl-N-(4-methyl-1-morpholino-1-oxopentan-2-yl)benzamide]",−4.86 ± 4.95%,63.8 ± 11%,–,–,–
"Cc1ccc(S(=O)(=O)N[C@@H](Cc2ccc3ccccc3c2)C(=O)Nc2ccc(N3CCOCC3)cc2)cc1 [Compound 117, (S)-2-(4-Methylphenylsulfonamido)-N-(4-morpholinophenyl)-3-(naphthalen-2-yl)propanamide]",4.59 ± 6.86%,–,-2.56 ± 9.56%,–,–
"CC(C)c1ccc(S(=O)(=O)N[C@@H](Cc2c[nH]c3ccccc23)C(=O)Nc2ccc(N3CCOCC3)cc2)cc1 [Compound 81, (S)-3-(1 Indol-3-yl)-2-(4-isopropylphenylsulfonamido)-N-(4 morpholinophenyl)propanamide]",73.98 ± 0.39%,–,–,77.74 ± 6.75,–
"CC(C)C[C@H](NS(=O)(=O)c1ccc(C(=O)OCc2ccccc2)cc1)C(=O)N1CCOCCOCCOCC1 [Compound 36, (S)-benzyl 4-(N-(4-methyl-1-oxo-1-(1,4,7-trioxa-10-azacyclododecan-10-yl)pentan-2-yl)sulfamoyl)benzoate]",64.40 ± 2.96%,36.8 ± 2.25%,–,–,–
"CC(C)C[C@H](NS(=O)(=O)c1ccc(OCc2ccccc2)cc1)C(=O)N1CCOCCOCCOCC1 [Compound 34, (S)-4-(benzyloxy)-N-(4-methyl-1-oxo-1-(1,4,7-trioxa-10-azacyclododecan-10-yl)pentan-2-yl)benzenesulfonamide]",38.82 ± 5.12%,34.4 ± 0.91%,–,–,–
"COc1ccc(N2CCN(C(=O)[C@H](Cc3c[nH]c4ccccc34)NS(=O)(=O)c3ccc(C)cc3)CC2)cc1 [Compound 203, (S)—N-(3-(1H-indol-3-yl)-1-(4-(4-methoxyphenyl)piperazin-1-yl)-1-oxopropan-2-yl)-4-methylbenzenesulfonamide]",48.15 ± 3.26%,35.1 ± 14.2%,–,–,–
"Cc1ccc(S(=O)(=O)N[C@@H](CC(C)C)C(=O)Nc2ccc(N3CCOCC3)nc2)cc1 [Compound 12, (S)-4-Methyl-2-(4-methylphenylsulfonamido)-N-(6-morpholinopyridin-3-yl)pentanamide]",23.26%,43.8 ± 8.7%,–,–,–
"CC(C)C[C@H](NS(=O)(=O)c1ccc(O)cc1)C(=O)N1CCOCCOCCOCC1 [Compound 35, (S)-4-hydroxy-N-(4-methyl-1-oxo-1-(1,4,7-trioxa-10-azacyclododecan-10-yl)pentan-2-yl)benzenesulfonamide]",−1.97 ± 14.7%,41.9 ± 1.66%,–,–,–
"CC(C)C[C@H](NC(=O)c1ccc(C(C)(C)C)cc1)C(=O)Nc1ccc(N2CCOCC2)cc1 [Compound 59, (S)-4-tert-Butyl-N-(4-methyl-1-(4-morpholinophenylamino)-1-oxopentan-2-yl)benzamide]",90.03 ± 0.97%,45.7 ± 8.28%,–,–,–
